Paper PMC8563752, “An oxidative metabolic pathway of 4-deoxy-L-erythro-5-hexoseulose uronic acid (DEHU) from alginate in an alginate-assimilating bacterium” (Communications Biology, 2021)

How the values were obtained:
[1] = tested on: T1, recFlRed; assay: NADH consumption by absorbance at […] nm, Michaelis-Menten fit; assay type: biochemical, Flavobacterium sp. UMI-01; conditions: reductase direction; 0.2 mM NADH, 0.15 M KCl, 10 mM sodium phosphate pH 7.4, 20 °C
T1 construct: gene FlRed; native 27 kDa on SDS-PAGE, about 102 kDa on gel filtration, tetramer

[2] = tested on: T1, recFlRed; assay: NADPH formation by absorbance at […] nm, Michaelis-Menten fit; assay type: biochemical, Flavobacterium sp. UMI-01; conditions: oxidase direction; 5 mM DEHU, 0.15 M KCl, 10 mM sodium phosphate pH 7.4, 20 °C
[3] = tested on: T1, recFlRed; assay: NADH formation by absorbance at […] nm, Michaelis-Menten fit; assay type: biochemical, Flavobacterium sp. UMI-01; conditions: oxidase direction; 5 mM DEHU, 0.15 M KCl, 10 mM sodium phosphate pH 7.4, 20 °C
[4] = molecular target: T2, recFlDeg (Flavobacterium sp. UMI-01, UniProt A0A6S6ASF6); assay: NADH formation at […] nm; assay type: biochemical; conditions: […] alpha-KGSA, […] potassium phosphate pH […] KCl, […] MgCl2, […] °C
T2 construct: full length, His-tag, E. coli BL21(DE3); calculated mass 57,142 Da; Glu251 and Cys288 conserved
T2 sequence (A0A6S6ASF6 1-515): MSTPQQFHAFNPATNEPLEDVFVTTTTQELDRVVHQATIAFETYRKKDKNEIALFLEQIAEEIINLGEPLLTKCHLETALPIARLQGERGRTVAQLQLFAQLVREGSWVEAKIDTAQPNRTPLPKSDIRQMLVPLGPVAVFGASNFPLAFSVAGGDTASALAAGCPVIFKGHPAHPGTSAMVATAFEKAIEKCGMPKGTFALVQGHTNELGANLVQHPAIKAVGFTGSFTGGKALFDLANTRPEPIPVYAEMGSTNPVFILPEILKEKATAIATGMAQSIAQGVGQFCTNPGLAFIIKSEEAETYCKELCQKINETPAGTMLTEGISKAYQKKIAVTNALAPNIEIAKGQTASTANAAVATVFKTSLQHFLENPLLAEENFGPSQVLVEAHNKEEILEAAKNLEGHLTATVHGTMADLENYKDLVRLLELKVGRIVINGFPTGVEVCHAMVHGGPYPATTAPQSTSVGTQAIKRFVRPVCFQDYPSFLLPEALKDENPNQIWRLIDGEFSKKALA

[5] = molecular target: T3, recFlDet (Flavobacterium sp. UMI-01, UniProt A0A6S6B272); assay: TBA method (decrease at […] nm), TLC, ESI-MS of product; assay type: biochemical; conditions: […] potassium phosphate pH […] KCl, […] MgCl2, […] °C
T3 construct: full length 237 residues (25,697 Da), C-terminal His-tag (27,394 Da), E. coli BL21(DE3); native tetra- or pentamer; N-terminus […]
T3 sequence (A0A6S6B272 1-237): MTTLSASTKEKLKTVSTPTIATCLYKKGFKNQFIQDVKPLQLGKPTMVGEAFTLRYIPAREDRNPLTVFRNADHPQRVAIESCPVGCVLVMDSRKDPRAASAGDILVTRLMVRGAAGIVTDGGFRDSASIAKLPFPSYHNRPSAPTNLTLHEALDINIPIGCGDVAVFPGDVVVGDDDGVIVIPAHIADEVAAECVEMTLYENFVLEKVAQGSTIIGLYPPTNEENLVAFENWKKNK

[6] = molecular target: T2, recFlDeg; assay: NADH formation at […] nm; TLC, ESI-MS and NMR of product; assay type: biochemical; conditions: NAD+, […] potassium phosphate pH […] KCl, […] MgCl2, […] °C
[7] = tested on: T1, recFlRed; assay: coenzyme consumption by absorbance at […] nm, Michaelis-Menten fit; assay type: biochemical, Flavobacterium sp. UMI-01; conditions: reductase direction; 5 mM DEHU, 0.15 M KCl, 10 mM sodium phosphate pH 7.4, 20 °C

O=C[C@@H](O)[C@@H](O)CC(=O)C(=O)O [DEHU]
Km [1]: 2600 ± 100 µM

NC(=O)c1ccc[n+]([C@@H]2O[C@H](COP(=O)(O)OP(=O)(O)OC[C@H]3O[C@@H](n4cnc5c(N)ncnc54)[C@H](OP(=O)(O)O)[C@@H]3O)[C@@H](O)[C@H]2O)c1 [NADP^+]
Km [2]: 1400 ± 200 µM

NC(=O)c1ccc[n+]([C@@H]2O[C@H](COP(=O)(O)OP(=O)(O)OC[C@H]3O[C@@H](n4cnc5c(N)ncnc54)[C@H](O)[C@@H]3O)[C@@H](O)[C@H]2O)c1 [NAD^+]
Km [3]: 98 ± 10 µM | NADH formation at 340 nm [4]: recFlDeg preferred NAD^+ to NADP^+

O=C(O)C(=O)C[C@H](O)[C@H](O)C(=O)O [KDGR]
TBA method (decrease at 548 nm), TLC, ESI-MS of product [5]: KDGR was determined to be the sole α-keto acid recognized by recFlDet

O=CCCC(=O)C(=O)O [α-KGSA]
NADH formation at 340 nm; TLC, ESI-MS and NMR of product [6]: FlDeg is the enzyme catalyzing the oxidation of the aldehyde group of α-KGSA

NC(=O)C1=CN([C@@H]2O[C@H](COP(=O)(O)OP(=O)(O)OC[C@H]3O[C@@H](n4cnc5c(N)ncnc54)[C@H](OP(=O)(O)O)[C@@H]3O)[C@@H](O)[C@H]2O)C=CC1 [NADPH]
Km [7]: 980 ± 100 µM

NC(=O)C1=CN([C@@H]2O[C@H](COP(=O)(O)OP(=O)(O)OC[C@H]3O[C@@H](n4cnc5c(N)ncnc54)[C@H](O)[C@@H]3O)[C@@H](O)[C@H]2O)C=CC1 [NADH]
Km [7]: 37 ± 2 µM
